Assay results reported in ChEMBL document CHEMBL4251621, “Design, synthesis and QSAR study of novel isatin analogues inspired Michael acceptor as potential anticancer compounds” (Eur J Med Chem, 2018).
Calls of active or inactive are those of the source. The rule behind the calls is not given here.

Assays:
BGC-823 = test: Cytotoxicity against human BGC823 cells assessed as cell growth inhibition after 72 hrs by MTT assay; format: functional, cell-based; settings: BGC-823, 72 h
SGC-7901 = test: Cytotoxicity against human SGC7901 cells assessed as cell growth inhibition after 72 hrs by MTT assay; format: functional, cell-based; settings: SGC-7901, 72 h
NCI-H460 [1] = test: Cytotoxicity against human NCI-H460 cells assessed as cell growth inhibition after 72 hrs by MTT assay; format: functional, cell-based; settings: NCI-H460, 72 h
NCI-H460 [2] = test: Growth inhibition of human NCI-H460 cells assessed as reduction in cell viability at 5 to 10 uM incubated for 24 to 72 hrs by MTT assay; format: functional, cell-based
NCI-H460 [3] = test: Anti-growth activity against human NCI-H460 cells assessed as reduction in colony formation at 10 uM after 48 hrs by crystal violet-based colony forming assay; format: functional, cell-based
NCI-H460 [4] = test: Anti-migratory activity against human NCI-H460 cells at 10 uM incubated for 48 hrs by wound healing assay; format: functional, cell-based
NCI-H460 [5] = test: Anti-growth activity against human NCI-H460 cells assessed as reduction in colony formation at 20 uM after 18 hrs by crystal violet-based colony forming assay; format: functional, cell-based
NCI-H460 [6] = test: Anti-migratory activity against human NCI-H460 cells at 20 uM incubated for 48 hrs by wound healing assay; format: functional, cell-based
Mus musculus [7] = test: Toxicity in BALB/C nu nude mouse xenografted with human NCI-H460 cells assessed as histopathological changes in liver at 15 mg/kg, ip administered everyday for 15 days by hematoxylin and eosin staining based light microscopic analysis; format: organism-based; settings: in vivo, 360 h
Mus musculus [8] = test: Toxicity in BALB/C nu nude mouse xenografted with human NCI-H460 cells assessed as histopathological changes in lung at 15 mg/kg, ip administered everyday for 15 days by hematoxylin and eosin staining based light microscopic analysis; format: organism-based; settings: in vivo, 360 h
NCI-H460 [9] = test: Induction of apoptosis in tumor of human NCI-H460 cells xenografted in BALB/C nu nude mouse assessed as downregulation of bcl2 expression at 15 mg/kg, ip administered everyday for 15 days by Western blot analysis; format: functional, organism-based
NCI-H460 [10] = test: Anti-growth activity against human NCI-H460 cells assessed as reduction in colony formation after 18 hrs by crystal violet-based colony forming assay; format: functional, cell-based
NCI-H460 [11] = test: Anti-migratory activity against human NCI-H460 cells incubated for 48 hrs by wound healing assay; format: functional, cell-based
NCI-H460 [12] = test: Cell cycle arrest in human NCI-H460 cells assessed as accumulation at G2/M phase at 5 to 20 uM after 48 hrs by propidium iodide staining-based flow cytometry; format: functional
NCI-H460 [13] = test: Antitumor activity against human NCI-H460 cells xenografted in BALB/C-nu nude mouse assessed as reduction in tumor growth at 15 mg/kg, ip administered every day for 15 days; format: functional, organism-based
Mus musculus [14] = test: Toxicity in BALB/C nu nude mouse xenografted with human NCI-H460 cells assessed as weight loss at 15 mg/kg, ip administered everyday for 15 days measured every 2 days; format: organism-based; settings: in vivo
Mus musculus [15] = test: Toxicity in BALB/C nu nude mouse xenografted with human NCI-H460 cells assessed as induction of abnormal behavior at 15 mg/kg, ip administered everyday for 15 days; format: organism-based; settings: in vivo, 360 h

O=C1Nc2ccccc2/C1=C\C(=O)c1ccc(Cl)cc1
IC50 (BGC-823): 6.9 µM | IC50 (SGC-7901): 8.5 µM | IC50 (NCI-H460 [1]): 6.5 µM

Nc1cccc(C(=O)/C=C2/C(=O)Nc3ccccc32)c1
IC50 (BGC-823): 29.9 µM | IC50 (SGC-7901): 14.4 µM | IC50 (NCI-H460 [1]): 20.4 µM

O=C1Nc2ccccc2/C1=C\C(=O)c1ccccc1Br
IC50 (BGC-823): 9.5 µM | IC50 (SGC-7901): 13.1 µM | IC50 (NCI-H460 [1]): 11 µM

Nc1c(Cl)cc(C(=O)/C=C2/C(=O)Nc3ccccc32)cc1Cl
IC50 (BGC-823): 8.5 µM | IC50 (SGC-7901): 11.9 µM | IC50 (NCI-H460 [1]): 6.2 µM

COc1cc(O)c(CC=C(C)C)c(O)c1C(=O)/C=C/c1ccc(O)cc1 [XANTHOHUMOL]
IC50 (BGC-823): 7.8 µM | IC50 (SGC-7901): 10 µM | IC50 (NCI-H460 [1]): 6.9 µM | growth inhibition (GI) (NCI-H460 [2]): Active | Activity (NCI-H460 [3]): Active | Activity (NCI-H460 [4]): Active

COc1cc(/C=C/C(=O)CC(=O)/C=C/c2ccc(O)c(OC)c2)ccc1O [CURCUMIN]
IC50 (BGC-823): 19.5 µM | IC50 (SGC-7901): 26.2 µM | growth inhibition (GI) (NCI-H460 [2]): Active | Activity (NCI-H460 [5]): Active | Activity (NCI-H460 [6]): Active | Activity (Mus musculus [7]): Non-Toxic | Activity (Mus musculus [8]): Non-Toxic | Activity (NCI-H460 [9]): Active

O=C1Nc2ccccc2/C1=C\C(=O)c1ccc([N+](=O)[O-])cc1
IC50 (BGC-823): 14.3 µM | IC50 (SGC-7901): 18.2 µM | IC50 (NCI-H460 [1]): 18.4 µM

COc1cc(C(=O)/C=C2/C(=O)Nc3ccccc32)cc(OC)c1OC
IC50 (BGC-823): 13.9 µM | IC50 (SGC-7901): 18.3 µM | IC50 (NCI-H460 [1]): 10.9 µM

C=CC(=O)Nc1cccc(C(=O)/C=C2/C(=O)Nc3ccccc32)c1
IC50 (BGC-823): 3.6 µM | IC50 (SGC-7901): 5.7 µM | IC50 (NCI-H460 [1]): 3.2 µM | Activity (NCI-H460 [2]): Dose-dependent effect | growth inhibition (GI) (NCI-H460 [2]; TDE = time-dependent effect): Tde | Activity (NCI-H460 [10]): Dose-dependent effect | Activity (NCI-H460 [11]): Dose-dependent effect | Activity (NCI-H460 [12]): Active | TGI (NCI-H460 [13]): Active | Activity (Mus musculus [14]): Non-Toxic | Activity (Mus musculus [15]): Non-Toxic | Activity (Mus musculus [7]): Non-Toxic | Activity (Mus musculus [8]): Non-Toxic | Activity (NCI-H460 [9]): Active

COc1ccc(C(=O)/C=C2/C(=O)Nc3ccccc32)cc1
IC50 (BGC-823): 19.8 µM | IC50 (SGC-7901): 23.2 µM | IC50 (NCI-H460 [1]): 5.5 µM

O=C1Nc2ccccc2/C1=C\C(=O)c1ccccc1
IC50 (BGC-823): 13.2 µM | IC50 (SGC-7901): 9.3 µM | IC50 (NCI-H460 [1]): 10.4 µM

O=C1Nc2ccccc2/C1=C\C(=O)c1cccc(Cl)c1
IC50 (BGC-823): 7.7 µM | IC50 (SGC-7901): 8.4 µM | IC50 (NCI-H460 [1]): 9.8 µM

O=C1Nc2ccccc2/C1=C\C(=O)c1cc(Cl)ccc1Cl
IC50 (BGC-823): 53.7 µM | IC50 (SGC-7901): 56.3 µM | IC50 (NCI-H460 [1]): 61.6 µM

COc1ccccc1C(=O)/C=C1/C(=O)Nc2ccccc21
IC50 (BGC-823): 10.2 µM | IC50 (SGC-7901): 16.3 µM | IC50 (NCI-H460 [1]): 10.2 µM

O=C1Nc2ccccc2/C1=C\C(=O)c1ccc(F)cc1
IC50 (BGC-823): 11.1 µM | IC50 (SGC-7901): 12.4 µM | IC50 (NCI-H460 [1]): 7.5 µM

COc1ccc(C(=O)/C=C2/C(=O)Nc3ccccc32)c(OC)c1
IC50 (BGC-823): 9.2 µM | IC50 (SGC-7901): 11.5 µM | IC50 (NCI-H460 [1]): 5.4 µM

O=C1Nc2ccccc2/C1=C\C(=O)c1ccccc1Cl
IC50 (BGC-823): 9.1 µM | IC50 (SGC-7901): 12.8 µM | IC50 (NCI-H460 [1]): 7.7 µM

O=C1Nc2ccccc2/C1=C\C(=O)c1ccccc1F
IC50 (BGC-823): 11.8 µM | IC50 (SGC-7901): 17.4 µM | IC50 (NCI-H460 [1]): 8.5 µM

O=C1Nc2ccccc2/C1=C\C(=O)c1cc(F)cc(F)c1
IC50 (BGC-823): 15.7 µM | IC50 (SGC-7901): 17.6 µM | IC50 (NCI-H460 [1]): 13.3 µM

CC(C)C(=O)Nc1cccc(C(=O)/C=C2/C(=O)Nc3ccccc32)c1
IC50 (BGC-823): 6.2 µM | IC50 (SGC-7901): 8.6 µM | IC50 (NCI-H460 [1]): 9.7 µM

CCC(=O)Nc1cccc(C(=O)/C=C2/C(=O)Nc3ccccc32)c1
IC50 (BGC-823): 7.5 µM | IC50 (SGC-7901): 11.5 µM | IC50 (NCI-H460 [1]): 10.3 µM

CC(=O)Nc1cccc(C(=O)/C=C2/C(=O)Nc3ccccc32)c1
IC50 (BGC-823): 9.1 µM | IC50 (SGC-7901): 14.1 µM | IC50 (NCI-H460 [1]): 12.3 µM

O=C1Nc2ccccc2/C1=C\C(=O)c1ccc(Cl)c(Cl)c1
IC50 (BGC-823): 13.2 µM | IC50 (SGC-7901): 17.8 µM | IC50 (NCI-H460 [1]): 13.7 µM

O=C1Nc2ccccc2/C1=C\C(=O)c1ccc(Br)cc1
IC50 (BGC-823): 9 µM | IC50 (SGC-7901): 10.2 µM | IC50 (NCI-H460 [1]): 11.5 µM
